Patent US20180036270A1, “A METHOD OF PROTECTING AGAINST CARBONYL STRESS INDUCED ISCHEMIA-REPERFUSION INJURY IN THE DIABETIC BRAIN VIA ADMINISTRATION OF N-ACETYLCYSTEINE” (Board of Supervisors of Louisiana State University and …, priority 2015, published 2018)
Entries after “also recorded” stand apart in the source; their conditions may differ.

How the values were obtained:
brain MG contents = assay: Brain MG by HPLC; format: in vivo, mouse; details: STZ diabetic mice, NAC 3 weeks
Procedure: Tissue contents of MG were also determined by HPLC. The brain tissues were homogenized in the same manner as that for GSH measurement. Homogenates (581 μl) were incubated with 19 μl of 60% perchloric acid at room temperature for 24 h and then centrifuged at 12000 rpm at 4° C. for 10 min. The supernatants were derivatized with 0.1M of o-phenylenediamine for 24 h to produce 2-methylquinoxaline. On the third day, the supernatants were used for measurements of MG contents. Separation of MG derivatives, whose peak was detected at 315 nm wavelength, was performed on a 250×4.6-mm Chromegabond Ultra C-18 reversed phase HPLC column. The contents were quantified using MG standards derivatized with o-phenylenediamine. MG contents were normalized to protein concentrations and expressed as nanomoles per mg protein.

[1] = tested on: diabetic mice with transient ischemic attacks; assay: Thrombosis after transient ischemic attack (TIA) in diabetic mice; format: in vivo, mouse; details: diabetes+TIA mice given NAC

Question: With `CC(=O)N[C@@H](CS)C(=O)O` [NAC, N-acetylcysteine] as the molecule, how does the MG-to-GSH ratio (brain MG contents) read?
Answer: The MG-to-GSH ratio was “significantly decreased”.

Question: And the “brain MG levels” value (brain MG contents)?
Answer: Its value is “a trend for decreased MG, but not significant; also recorded: remained high, although trending lower; also recorded: attenuated”.

Question: And the thrombosis time [1]?
Answer: The thrombosis time was “some improvement”.
